The source of these data is publication PMC6938345, “Inhibition of complement activation, myeloperoxidase, NET formation and oxidant activity by PIC1 peptide variants” (PLoS ONE, 2019).

The nature of series [1]: Peptide solubility in water. The procedure: (PA) (Table 1) were synthesized by New England Peptide (Gardner, MA) to >90% purity. Sarcosine variants and PEG were dissolved in water and the pH was adjusted with NaOH. PA was dissolved in DMSO and then brought up to the final concentration with water resulting in 30% DMSO and pH adjusted. Antibody sensitized sheep erythrocytes (EA), purified C1q and factor B-depleted human sera were purchased from Complement Technology (Tyler, TX). Purified myeloperoxidase was purchased from Lee BioSolutions (Maryland Heights, MO) and tetramethylbenzidine (TMB) and PicoGreen were purchased from Thermo Fisher (Waltham MA).
(PA), peptide derivatives were synthesized with sarcosine residues substituted at all 15 positions, included a peptide in which the vicinal cysteines at positions 9 and 10 (C9,C10) were replaced with a single sarcosine residue (Table 1).

For series [2], the system named is antibody-initiated complement activation (type O sera + type AB red blood cells). Kind of series: ABO incompatibility hemolytic assay (CH50-type, ex vivo). The format is cell-based, human. The following applies: peptides 1.8 mM; for ABO hemolysis: Avg of n = 4, concentration basis of PIC1 not stated. The procedure: For hemolytic complement assays, human red blood cells (RBCs) from type AB donors were purified, washed and standardized to 1 × 10^9 cells/ml, as previously described. Human sera from type O donors at a 20% final concentration was combined with 1 mM PIC1 or sarcosine variant peptides and the volume was brought up to 0.15 ml with GVBS^++ and 0.5 ml RBCs. For factor B-depleted sera hemolytic assays, a final of 0.005% factor B depleted sera was incubated with 1 mM PIC1 or sarcosine variant peptides with 0.1 ml antibody-sensitized sheep red blood cells (EA) in a final volume of 0.75 ml GVBS^++. The samples were incubated for 1 hour at 37 °C and then 1.0 ml of GVBS^-—was added to the factor B-depleted samples to stop the reaction. The samples were spun at 3,000 rpm for 5 minutes and the supernatant was collected and read at 412 nm. Values are represented as a percent of the positive control, which consists of human O sera and AB red blood cells in GVBS^++ buffer.
In order to evaluate the extent to which the peptide variants inhibit antibody-initiated complement activation, we tested them in two hemolytic assays including an ABO incompatibility ex vivo assay (Fig 1A) and a classical pathway CH50-type assay in factor B-depleted sera (Fig 1B). In the ABO incompatibility hemolytic assay, purified erythrocytes from a ‘type AB+’ donor are incubated with sera from a ‘type O’ subject containing anti-A and anti-B antibodies; peptides were tested at 1.8 mM. […] We then performed a CH50-type hemolytic assay, with antibody-sensitized sheep erythrocytes, isolating the classical pathway by utilizing factor B-depleted sera; peptides were tested at 0.4 mM.
Fig 1 Sarcosine variant inhibition of complement activation in hemolytic assays and C1q binding. A) Inhibition of ABO incompatibility hemolysis in a CH50-type assay. Peptides are at a final concentration of 1.8 mM. […] Data are the means of n = 4 independent experiments + SEM. B) Inhibition of classical complement pathway-mediated hemolysis in factor B-depleted sera in a CH50-type assay. Peptides are at a final concentration of 0.4 mM. Data are the means of n = 4 independent experiments + SEM. C) Binding of increasing concentrations of sarcosine variants to purified C1q in an ELISA-type assay. Data are the means of n = 3 independent experiments ± SEM. D) Half-maximal binding concentrations were calculated for each peptide’s binding curve.

The nature of series [3]: Total Antioxidant Capacity (TAC) assay. The settings on record: for TAC assay, antioxidant activity: Avg of n = 3; for antioxidant capacity (in words): TAC assay. The procedure:
The TAC (Total Antioxidant Capacity) Assay (Cell Biolabs, Inc, San Diego, CA) was used to measure the antioxidant capacity of the sarcosine variants based on the reduction of copper (II) to copper (I). The kit protocol was performed as recommended.
Antioxidant activity is measured in copper reducing equivalents (CRE). Peptides were tested over a range of concentrations from 0.03–0.25 mM then compared to the standard. Data are the means of n = 3 independent experiments + SEM.

In series [4] the test system is purified human neutrophils. As to the kind of experiment: NETosis assay, free DNA by PicoGreen. The settings on record: for PICO green - NETs, free DNA release: Average of n = 3, peptide 2 mM. Format: cell-based. As for the experimental part: NETosis assays with immune complexes were performed as previously described. Briefly, normal human serum was stimulated with ovalbumin-antiovalbumin immune complexes in GVBS^++ for 30 minutes at 37 °C. This mixture along with 0.05% H2O2 was then added to purified human neutrophils resuspended in RPMI with or without sarcosine variants (2 mM), allowing NETosis to occur. Quantitation of free DNA released from the neutrophils was performed using PicoGreen. Slides were stained with DAPI (Southern Biotech, Birmingham, AL) and the following antibodies, mouse anti-elastase (Invitrogen, Carlsbad, CA) was used with the secondary goat anti-mouse Alexa Fluor 568 (Novus Biologicals, Centennial, CO) and rabbit anti-histone H3 (Abcam, Cambridge MA) with goat anti-rabbit Alexa Fluor 488 (Novus Biologicals) to visualize formation of NETs which were imaged with fluorescence microscopy with an Olympus BX53 microscope.
In this assay purified human neutrophils are stimulated with normal human serum activated with ovalbumin-antiovalbumin immune complexes and hydrogen peroxide. Free DNA expressed from the neutrophils is then measured in a PicoGreen assay.
Fig 5 Sarcosine variant inhibition of NET formation. Fluorescence microscopy images of NET formation after neutrophil stimulation with immune complexes (IC) and hydrogen peroxide (H2O2) compared with neutrophil only control. Variant I8 inhibition of NET formation is shown in the third row. Histones are probed with anti-histone antibody (αhistone), neutrophil elastase is probed with anti-neutrophil elastase (αNE) and DNA is stained with DAPI. Representative images are shown. […] Purified human neutrophils were stimulated with 2% normal human sera pre-incubated with ovalbumin-antiovalbumin immune complexes, and 0.05% H2O2. Sarcosine peptides and PIC1 were added to the sera to a final concentration of 2 mM. Data are the means of n = 3 independent experiments + SEM.

For a further series, the target named is T1, C1q (Homo sapiens, UniProt P02745+P02746+P02747).
T1 construct: purchased Complement Technology (Tyler, TX)
T1 sequence (P02745 23-245): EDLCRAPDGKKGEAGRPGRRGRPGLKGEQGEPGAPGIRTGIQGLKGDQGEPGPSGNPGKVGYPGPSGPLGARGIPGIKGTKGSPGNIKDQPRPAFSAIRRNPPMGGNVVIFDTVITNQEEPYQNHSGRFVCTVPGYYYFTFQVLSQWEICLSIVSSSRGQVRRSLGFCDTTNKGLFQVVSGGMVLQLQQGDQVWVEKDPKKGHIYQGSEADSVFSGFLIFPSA
T1 sequence (P02746 28-253): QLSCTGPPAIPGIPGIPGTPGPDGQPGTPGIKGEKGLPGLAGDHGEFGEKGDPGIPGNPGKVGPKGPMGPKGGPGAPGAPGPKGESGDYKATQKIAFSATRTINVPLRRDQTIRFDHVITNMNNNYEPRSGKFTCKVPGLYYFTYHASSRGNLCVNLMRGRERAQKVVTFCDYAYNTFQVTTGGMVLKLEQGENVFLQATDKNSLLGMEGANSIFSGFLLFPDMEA
T1 sequence (P02747 29-245): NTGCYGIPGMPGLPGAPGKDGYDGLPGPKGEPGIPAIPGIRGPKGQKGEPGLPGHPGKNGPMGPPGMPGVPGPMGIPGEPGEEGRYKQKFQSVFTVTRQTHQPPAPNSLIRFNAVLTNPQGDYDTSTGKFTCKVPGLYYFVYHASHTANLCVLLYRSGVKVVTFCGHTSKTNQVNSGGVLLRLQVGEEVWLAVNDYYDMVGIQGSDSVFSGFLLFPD
As to the kind of experiment: C1q binding ELISA-type assay. The settings on record: C1q as capture substrate. As for the experimental part: An Immunlon-2 HB ELISA plate was coated with 1 μg/ml C1q or MPO in bicarbonate buffer overnight at 4 °C. The plates were washed with PBST (phosphate buffered saline + 0.1% Tween) and then blocked with 1% gelatin/PBS for 2 hours at room temperature. After washing, the plates were incubated with PA or sarcosine variant peptides starting at 2.5 mg/ml and then serially diluted in 1% gelatin/PBS for 1 hour at room temperature. After washing, the plates were probed with rabbit anti-PA (developed with Cocalico Biologicals, Reamstown, PA) at 1:1000 in 1% gelatin/PBS for 1 hour, room temperature, followed by a goat anti-rabbit HRP (Sigma Aldrich, St Louis, MO) at 1:1,000 in 1% gelatin/PBS for 1 hour at room temperature with a washing step in between. Wells were developed using TMB substrate solution, stopped using 1 N H2SO4, and read at 450 nm in a plate reader.
We then tested peptide variant binding to C1q in an ELISA-type assay in which the C1q is used as the capture substrate. Binding curves for each peptide is shown in Fig 1C, from which half-maximal binding concentrations were calculated (Fig 1D). […] Higher concentrations of DMSO interfere with the detecting reagents resulting in a partial binding curve.
A general note: In an ELISA, binding on a coated surface is turned into a signal by an enzyme label.

As for `CC[C@H](C)[C@H](N)C(=O)N[C@@H](C)C(=O)N(C)CC(=O)N[C@H](C(=O)N[C@@H](CC(C)C)C(=O)N[C@@H](CCC(=O)O)C(=O)N1CCC[C@H]1C(=O)N[C@H](C(=O)N[C@@H](CS)C(=O)N[C@@H](CS)C(=O)N[C@@H](CCC(N)=O)C(=O)N[C@@H](CCC(=O)O)C(=O)N[C@@H](CCCNC(=N)N)C(=O)N[C@@H](C)C(=O)N[C@@H](C)C(=O)O)[C@@H](C)CC)[C@@H](C)CC` [L3], the “solubility in water (in words)” value in series [1] is “soluble in water”. The ABO hemolysis in series [2] is 24.75 % of Control. Besides, in series [3], the “TAC assay, antioxidant activity” value is on record as 1336.63 copper reducing equivalents (CRE) and the “antioxidant capacity (in words)” value is reported as “approaching that of PA-dPEG24”. For the same compound, in series [4], the “PICO green - NETs, free DNA release” value came out at 29.

With `CC[C@H](C)[C@H](N)C(=O)N[C@@H](C)C(=O)N[C@@H](CC(C)C)C(=O)N(C)CC(=O)N[C@@H](CC(C)C)C(=O)N[C@@H](CCC(=O)O)C(=O)N1CCC[C@H]1C(=O)N[C@H](C(=O)N[C@@H](CS)C(=O)N[C@@H](CS)C(=O)N[C@@H](CCC(N)=O)C(=O)N[C@@H](CCC(=O)O)C(=O)N[C@@H](CCCNC(=N)N)C(=O)N[C@@H](C)C(=O)N[C@@H](C)C(=O)O)[C@@H](C)CC` [I4], the “solubility in water (in words)” value in series [1] is “soluble in water”. Also, in series [2], the ABO hemolysis is on record as 18.25 % of Control and the “inhibition of ABO incompatible hemolysis (in words)” value is recorded as “to a greater extent than did the PA-dPEG24”. In series [3], the “TAC assay, antioxidant activity” value is 1518.02 copper reducing equivalents (CRE) and the “antioxidant capacity (in words)” value is on record as “approaching that of PA-dPEG24”. Also, in series [4], the “PICO green - NETs, free DNA release” value came to 68. Moreover, the “inhibition of NETosis (in words)” value in series [4] (peptides 2 mM, immune complexes + H2O2, PicoGreen free DNA) was “reduced ability to inhibit NETosis”.

Consider `CC[C@H](C)[C@H](N)C(=O)N[C@@H](C)C(=O)N[C@@H](CC(C)C)C(=O)N[C@H](C(=O)N(C)CC(=O)N[C@@H](CCC(=O)O)C(=O)N1CCC[C@H]1C(=O)N[C@H](C(=O)N[C@@H](CS)C(=O)N[C@@H](CS)C(=O)N[C@@H](CCC(N)=O)C(=O)N[C@@H](CCC(=O)O)C(=O)N[C@@H](CCCNC(=N)N)C(=O)N[C@@H](C)C(=O)N[C@@H](C)C(=O)O)[C@@H](C)CC)[C@@H](C)CC` [L5], for which the “solubility in water (in words)” value in series [1] is on record as “soluble in water”. Further, in series [2], the ABO hemolysis is on record as 33.50 % of Control. The “TAC assay, antioxidant activity” value in series [3] is 882.23 copper reducing equivalents (CRE). Moreover, in series [4], the “PICO green - NETs, free DNA release” value worked out at 32.

As for `CC[C@H](C)[C@H](N)C(=O)N(C)CC(=O)N[C@@H](CC(C)C)C(=O)N[C@H](C(=O)N[C@@H](CC(C)C)C(=O)N[C@@H](CCC(=O)O)C(=O)N1CCC[C@H]1C(=O)N[C@H](C(=O)N[C@@H](CS)C(=O)N[C@@H](CS)C(=O)N[C@@H](CCC(N)=O)C(=O)N[C@@H](CCC(=O)O)C(=O)N[C@@H](CCCNC(=N)N)C(=O)N[C@@H](C)C(=O)N[C@@H](C)C(=O)O)[C@@H](C)CC)[C@@H](C)CC` [A2], the “solubility in water (in words)” value in series [1] is “soluble in water”. Besides, in series [2], the ABO hemolysis is listed as 18.50 % of Control and the “inhibition of ABO incompatible hemolysis (in words)” value is on record as “to a greater extent than did the PA-dPEG24”. In addition, the “TAC assay, antioxidant activity” value in series [3] is reported as 1071.61 copper reducing equivalents (CRE). Moreover, the “PICO green - NETs, free DNA release” value in series [4] is recorded as 44.

Regarding `CC[C@H](C)[C@H](N)C(=O)N[C@@H](C)C(=O)N[C@@H](CC(C)C)C(=O)N[C@H](C(=O)N[C@@H](CC(C)C)C(=O)N[C@@H](CCC(=O)O)C(=O)N1CCC[C@H]1C(=O)N[C@H](C(=O)N[C@@H](CS)C(=O)N[C@@H](CS)C(=O)N[C@@H](CCC(N)=O)C(=O)N[C@@H](CCC(=O)O)C(=O)N[C@@H](CCCNC(=N)N)C(=O)N[C@@H](C)C(=O)N[C@@H](C)C(=O)O)[C@@H](C)CC)[C@@H](C)CC` [PA], the “solubility in water (in words)” value in series [1] is recorded as “poor aqueous solubility”. Also, at C1q, the “binding to C1q (in words)” value is “superior binding to C1q”. In series [3], the “TAC assay, antioxidant activity” value is on record as 1289.18 copper reducing equivalents (CRE).
